Common to all, as to assay: DTP human tumour cell line panel, 48 h
The test system of assay [1] is MDA-N.
The test system of assay [2] is DMS-114.
For assay [3], the system named is DMS-273.
The subject of assay [4] is HOP-18.
The test system of assay [5] is SNB-78.
For assay [6], the system named is XF498.
Assay [7] deals with LXFL 529.
In assay [8] the test system is RXF 631.
Assay [9] concerns 786-0.

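Test compounds were applied to cells in 96-well plates for 48 hours at 5 doses. GI50 = concentration required for 50% inhibition of growth.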 Activity calls are given as the source filed them. Cut-off read from the data, not from the text of the source: active = GI50 up to about 1.1 µM and inactive = higher.

Broadly, the GI50 is the concentration that inhibits growth by half.

On to `COc1ccc(-c2c3c(nc4nc(SCC(=O)c5ccc(Br)cc5)nc(N)c24)CCCC3)cc1OC`, for which the GI50 in [1] was > 100 µM (inactive).

Take `CC1=NN(C(=O)c2ccc(C)cc2)C(=O)C1/N=N/c1ccccc1C(=O)O` (configuration not stated): the GI50 was > 100 µM (inactive) in assay [2]; > 100 µM (inactive) in [3]; > 100 µM (inactive) in assay [4]; > 94 µM (inactive) in assay [5]; 61.8 µM (inactive) in assay [6].

Consider `Cc1nn(-c2ccccc2)c(S)c1C(=O)c1ccccc1`, for which the GI50 in assay [2] is 26.4 µM (inactive); in assay [3], 40.1 µM (inactive); in assay [4], < 0.01 µM (active); in assay [7], 18.2 µM (inactive); in assay [8] it was 27 µM (inactive); in [5], 24.4 µM (inactive). The GI50 in assay [6] is 35.2 µM (inactive).

Regarding `COc1ncnc2c(Cl)c(C(O)c3ccccc3)c(Cl)cc12` (configuration not stated), in [1], the GI50 is 5.16 µM (inactive).

With `COc1cc2cc[n+]3c(C)c4cc(OC)c(OC)cc4c([O-])c3c2cc1OC`, the GI50 in assay [2] was 30.3 µM (inactive); in assay [3], 53.6 µM (inactive); in assay [7] it was 40.1 µM (inactive); in assay [5], > 100 µM (inactive); in [6], 22.1 µM (inactive).

On to `COc1ccc(/C=N/n2cnc3c(c2=O)SC(=C(C#N)C#N)N3c2ccccc2)cc1`, for which the GI50 in assay [4] is 50.7 µM (inactive); in [7], > 100 µM (inactive).

Turning to `CCOC(=O)C1=C(C)N(C2OC(COC(C)=O)C(OC(C)=O)C(OC(C)=O)C2OC(C)=O)C(=O)NC1c1ccccc1` (configuration not stated), the GI50 in assay [2], in [4], in assay [7], in assay [8] and in assay [5] was > 100 µM (inactive) in each case.

For the molecule `COc1cc(C(O)(CC#N)c2cc3c(cc2Br)OCO3)cc(OC)c1OC` (configuration not stated), the GI50 in [1] was 5.07 µM (inactive).

Turning to `CSc1cc(=O)n2c3ccccc3c3ccnc1c32`, the GI50 in assay [2] is > 100 µM (inactive); in assay [3], 79.6 µM (inactive); in [5], > 70.8 µM (inactive).

`CNNC1=NS(=O)(=O)c2cc(C)c(Cl)cc2S1`: the GI50 in assay [9] and in [1] was > 10 µM (inactive) each time.

With `CCOC(=O)c1ccc(N2C(=O)/C(=C/c3ccc(N(CCC#N)CCC#N)cc3)N=C2c2cc([N+](=O)[O-])ccc2Cl)cc1`, the GI50 in assay [2], in assay [3], in assay [4], in assay [7], in assay [8] and in [5] was > 100 µM (inactive) throughout.

Consider `CC(C(=O)O)c1cnn(-c2ccccc2)c1-n1cccc1` (configuration not stated), for which the GI50 in assay [3], in assay [4], in assay [5] and in [6] was > 100 µM (inactive) in each case.

For the molecule `OC(c1ccc(Br)cc1)(c1cccs1)C1CC1` (configuration not stated), the GI50 was 18.3 µM (inactive) in assay [9] and 20.7 µM (inactive) in assay [1].

With `CCOC(=O)/C(C#N)=C\c1ccc(N(CCC(=O)O)CCC(=O)O)c(I)c1`, the GI50 in assay [9] and in assay [1] was > 10 µM (inactive) each time.

For the molecule `OCC(O)COc1ccc(Br)cc1` (configuration not stated), the GI50 in assay [2], in [3], in [4], in assay [7], in [8] and in assay [6] was > 100 µM (inactive) each time.

For the molecule `O=C1C(Cl)N(c2ccc(Cl)cc2)C1c1c[nH]c2ccccc12` (configuration not stated), the GI50 was 14.2 µM (inactive) in [2], 14.1 µM (inactive) in assay [7] and 17.5 µM (inactive) in assay [6].

As to `COc1ccccc1/C=C1\Sc2scc(-c3cccc([N+](=O)[O-])c3)[n+]2C1=O`, the figures for the GI50 in assay [9] and in [1] were 2.76 µM (inactive) and 2.87 µM (inactive), respectively.

With `O=[N+]([O-])c1ccc(-c2nc(/C=N/N3CCCCC3)cs2)o1`, in assay [9], the GI50 is > 100 µM (inactive).

For `CCCCc1ccc(N2C(=O)c3cc([N+](=O)[O-])cnc3S2(=O)=O)cc1`, the GI50 in [9] and in assay [1] was > 100 µM (inactive) each time.

For the molecule `CCOC(=O)c1c(CN2CCNCC2)nc2ccccc2c1-c1ccccc1`, the GI50 in assay [9] is 12.7 µM (inactive); in [1] it was 10.9 µM (inactive).

For the molecule `COC(=O)/C=C\Sc1ccn(/C=C\C(=O)OC)c(=S)n1`, the GI50 in assay [1] was 27.3 µM (inactive).

`COc1ccc(CCN(C)C2CCC(C#N)(c3ccc(OC)c(OC)c3)CC2)cc1OC` (configuration not stated): the GI50 is > 100 µM (inactive) in assay [9]; > 100 µM (inactive) in assay [3]; > 100 µM (inactive) in assay [4]; > 100 µM (inactive) in assay [7]; 61.2 µM (inactive) in [8]; > 100 µM (inactive) in assay [6].

As to `COc1ccc(OC)c(/C=C/C(=O)C(C)(C)C)c1`, the GI50 in assay [9] was 19.5 µM (inactive); in [2], 15.2 µM (inactive); in assay [3], 21.1 µM (inactive); in assay [4], 21.3 µM (inactive); in assay [7], 19.2 µM (inactive); in assay [8] it was 32.8 µM (inactive).

For `C[C@@H]1C[C@]2(C[C@@H](C)[C@H]3C(C[C@@]4(C)CCC[C@@H]5C6=C[C@H](CCC34C)OC6=CC(=O)OC5(C)C)O2)OC1=O` (some centres not stated), the GI50 in [2], in [3], in assay [4], in assay [5] and in assay [6] was > 51.5 µM (inactive) in each case.

For `Cc1occc1C(=S)Nc1ccc(Cl)c(C(=O)OCC(C)C)c1`, the GI50 in [9] was 16.7 µM (inactive); in assay [1], 21.1 µM (inactive).

On to `O=C1C(CO)=C[C@H](O)[C@H]2O[C@@H]12`, for which the GI50 in assay [2] is 137 µM (inactive); in assay [3], 185 µM (inactive); in [4], > 625 µM (inactive); in assay [5] it was 186 µM (inactive); in [6], 177 µM (inactive).

These data come from ChEMBL document CHEMBL1201862, “PubChem BioAssay data set” (2004).
